Data from patent US8329950B2, “Process for preparation of trans 4-(3,4-Dichlorophenyl)-1,2,3,4-tetrahydro-1Napthalenamine” (Sunovion Pharmaceuticals Inc., priority 2005, dated 2012).
Values joined by “and” are separate entries in the source; they are usually repeats but may differ in a detail not shown here. Equal values may be shown once.

What was measured:
[1] = target: T1, functional uptake of dopamine (DA) (Rattus norvegicus, UniProt P23977); assay: Dopamine functional uptake assay in rat striatum synaptosomes; type: biochemical
T1 construct: synaptosomes isolated at Cerep in a 0.32 M sucrose buffer from a male Wistar rat striatum; tissue Cerep; host or cells: male Wistar rat striatum synaptosomes
T1 sequence (P23977 whole entry): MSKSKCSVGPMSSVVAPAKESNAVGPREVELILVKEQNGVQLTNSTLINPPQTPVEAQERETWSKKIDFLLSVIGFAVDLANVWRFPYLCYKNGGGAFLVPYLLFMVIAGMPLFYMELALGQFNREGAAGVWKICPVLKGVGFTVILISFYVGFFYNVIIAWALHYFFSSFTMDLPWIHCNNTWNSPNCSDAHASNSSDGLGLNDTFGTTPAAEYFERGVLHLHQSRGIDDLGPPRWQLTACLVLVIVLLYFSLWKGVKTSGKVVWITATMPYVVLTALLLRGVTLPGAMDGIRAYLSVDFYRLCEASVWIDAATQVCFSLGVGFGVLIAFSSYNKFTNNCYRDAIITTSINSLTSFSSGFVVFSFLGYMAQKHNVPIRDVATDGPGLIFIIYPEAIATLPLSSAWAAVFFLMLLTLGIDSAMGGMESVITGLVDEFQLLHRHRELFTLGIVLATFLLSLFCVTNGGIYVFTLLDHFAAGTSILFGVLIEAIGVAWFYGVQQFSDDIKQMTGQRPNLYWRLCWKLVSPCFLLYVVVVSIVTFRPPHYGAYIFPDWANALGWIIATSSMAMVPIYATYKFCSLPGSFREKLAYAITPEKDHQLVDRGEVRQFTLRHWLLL
Procedure: Characterization of dopamine uptake is performed using synaptosomes isolated at Cerep in a 0.32 M sucrose buffer from a male Wistar rat striatum. The uptake of radiolabelled dopamine by synaptosomes (20 μg of proteins/point) is allowed by incubating them in a deep well for 15 minutes at 37° C. in presence of test compounds and [^3H]-dopamine (0.1 μCi/point).
Synaptosomes and [^3H]-dopamine are prepared in a Krebs buffer pH 7.4 containing 25 mM NaHCO3, 11 mM glucose and 50 μM ascorbic acid. This incubation buffer is oxygenated during 5 minutes before incubation. Basal control is incubated for 15 minutes at 4° C. in order to avoid any uptake. Following this incubation the uptake is stopped by filtration through an “unifilter 96-wells GFB “Packard plate washed with Krebs buffer containing 25 mM NaHCO3 in order to eliminate the free [^3H]-dopamine. The radioactivity associated to the synaptosomes retained onto the unifilter corresponding to the uptake is then measured with a microplate scintillation counter Topcount, Packard using a scintillation liquid microscint 0, Packard.

[2] = target: T2, functional uptake of norepinephrine (NE) (Rattus norvegicus, UniProt Q63380); assay: biochemical
T2 construct: synaptosomes isolated at Cerep in a 0.32 M sucrose buffer from a male Wistar rat hypothalamus; tissue Cerep; host or cells: male Wistar rat hypothalamus synaptosomes
T2 sequence (Q63380 1-617): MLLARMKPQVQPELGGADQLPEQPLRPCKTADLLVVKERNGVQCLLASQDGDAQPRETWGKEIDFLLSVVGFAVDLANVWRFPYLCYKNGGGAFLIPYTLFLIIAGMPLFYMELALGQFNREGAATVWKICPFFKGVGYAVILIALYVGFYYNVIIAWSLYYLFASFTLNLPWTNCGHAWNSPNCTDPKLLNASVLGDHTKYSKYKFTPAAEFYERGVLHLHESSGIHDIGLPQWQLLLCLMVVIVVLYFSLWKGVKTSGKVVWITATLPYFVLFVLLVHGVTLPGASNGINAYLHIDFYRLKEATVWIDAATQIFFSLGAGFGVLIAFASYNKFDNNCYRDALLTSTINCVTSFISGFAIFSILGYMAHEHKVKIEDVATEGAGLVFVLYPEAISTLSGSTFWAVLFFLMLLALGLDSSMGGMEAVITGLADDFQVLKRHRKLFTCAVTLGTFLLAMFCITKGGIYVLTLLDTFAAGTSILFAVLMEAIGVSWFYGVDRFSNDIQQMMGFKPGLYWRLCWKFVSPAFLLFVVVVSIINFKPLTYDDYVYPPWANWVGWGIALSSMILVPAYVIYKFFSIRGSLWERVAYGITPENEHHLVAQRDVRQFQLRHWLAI
Procedure: Characterization of norepinephrine uptake is performed using synaptosomes isolated at Cerep in a 0.32 M sucrose buffer from a male Wistar rat hypothalamus. The uptake of radiolabeled norepinephrine by synaptosomes (100 μg of proteins/point) is allowed by incubating them in a deep well for 20 minutes at 37° C. in presence of test compounds and [^3H]-norepinephrine (0.1 μCi/point).
Synaptosomes and [^3H]-norepinephrine are prepared in a Krebs buffer pH 7.4 containing 25 mM NaHCO3, 11 mM glucose and 50 μM ascorbic acid. This incubation buffer is oxygenated during 5 minutes before incubation. Basal control is incubated for 20 minutes at 4° C. in order to avoid any uptake. Following this incubation the uptake is stopped by filtration through an “unifilter 96-wells GFB “Packard plate washed with Krebs buffer containing 25 mM NaHCO3 in order to eliminate the free [^3H]-norepinephrine. The radioactivity associated to the synaptosomes retained onto the unifilter corresponding to the uptake is then measured with a microplate scintillation counter Topcount, Packard using a scintillation liquid microscint 0, Packard.

[3] = system: mice; assay: Behavioral Despair Test (Porsolt swim test) in mice; type: in vivo; conditions: 10 mg/kg
[4] = target: T3, functional uptake of serotonin (5-HT) (Rattus norvegicus, UniProt P31652); assay: Serotonin functional uptake assay in rat synaptosomes; type: biochemical; conditions: Table 6; tested initially at 10 μM
T3 construct: synaptosomes isolated in a 0.32 M sucrose buffer from a male Wistar rat cortex; from tissue; host or cells: male Wistar rat cortex (whole brain) synaptosomes
T3 sequence (P31652 whole entry): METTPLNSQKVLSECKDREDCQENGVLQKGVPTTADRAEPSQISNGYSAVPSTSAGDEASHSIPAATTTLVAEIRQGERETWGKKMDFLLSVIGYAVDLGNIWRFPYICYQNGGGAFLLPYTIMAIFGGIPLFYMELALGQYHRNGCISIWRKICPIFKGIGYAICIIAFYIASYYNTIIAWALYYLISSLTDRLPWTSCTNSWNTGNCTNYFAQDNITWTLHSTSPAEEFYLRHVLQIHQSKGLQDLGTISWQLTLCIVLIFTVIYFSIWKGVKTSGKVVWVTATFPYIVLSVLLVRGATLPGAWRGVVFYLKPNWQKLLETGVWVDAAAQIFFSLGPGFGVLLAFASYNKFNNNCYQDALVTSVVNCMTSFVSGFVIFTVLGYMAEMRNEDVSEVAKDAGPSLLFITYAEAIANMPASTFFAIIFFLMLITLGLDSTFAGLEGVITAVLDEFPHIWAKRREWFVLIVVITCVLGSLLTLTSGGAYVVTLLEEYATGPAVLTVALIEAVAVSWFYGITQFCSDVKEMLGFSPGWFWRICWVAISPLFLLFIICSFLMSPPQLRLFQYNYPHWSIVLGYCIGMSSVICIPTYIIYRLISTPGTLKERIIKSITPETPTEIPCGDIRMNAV
Procedure: Characterization of serotonin uptake is performed using synaptosomes isolated in a 0.32 M sucrose buffer from a male Wistar rat cortex. The uptake of radiolabelled serotonin by synaptosomes (100 μg of proteins/point) is allowed by incubating them in a deep well for 15 minutes at 37° C. in presence of test compounds and [3H]5-hydroxytryptamin (0.1 μCi/point).
Synaptosomes and [^3H]5-hydroxytryptamine are prepared in a Krebs buffer pH 7.4 containing 25 mM NaHCO3, 11 mM glucose and 50 μM ascorbic acid. This incubation buffer is oxygenated during 5 minutes before incubation. Basal control is incubated for 15 minutes at 4° C. in order to avoid any uptake. Following this incubation the uptake is stopped by filtration through an “unifilter 96-wells GFB “Packard plate washed with Krebs buffer containing 25 mM NaHCO3 in order to eliminate the free [^3H]5-hydroxytryptamine. The radioactivity associated to the synaptosomes retained onto the unifilter corresponding to the uptake is then measured with a microplate scintillation counter Topcount, Packard using a scintillation liquid microscint 0, Packard.

[5] = Table 6, tested initially at 10 μM

| SMILES | inhibition of DA uptake [1, 5] | inhibition at 10 µM ([1]; read-out: inhibition of DA uptake) | inhibition at 10 µM ([2]; read-out: inhibition of NE uptake) | Immobility Duration, individual mice [3] | Immobility Duration, Mean ([3]; N = 10) | inhibition of 5-HT uptake [4] | inhibition of NE uptake [2, 5] |
| --- | --- | --- | --- | --- | --- | --- | --- |
| CN(C)CCCN1c2ccccc2CCc2ccccc21 [imipramine] | — (— <50% inhibition) | < 50% | < 50% | 89 s and 85 s and 73 s and 37 s and 74 s and 95 s and 5 s and 33 s | 58 s | – | – |
| Fc1ccc(C(OCCN2CCN(CCCc3ccccc3)CC2)c2ccc(F)cc2)cc1 [GBR 12909] | – | – | – | – | – | — (— <50% inhibition) | — (— <50% inhibition) |
